Measured values published in patent US6555333B1, “Broad spectrum fastidious organism culture medium” (priority 2002, dated 2003).
Where two headings read alike, the source gives them in different places.

How the values were obtained:
Haemophilus influenzae [1] = experiment: MIC testing (Etest strip) on the culture medium of Example 1; assay type: cell-based; settings: for Observed MIC Breakpoints I: I = intermediate; for Observed MIC Breakpoints R: R = resistant; for Observed MIC Breakpoints S: S = susceptible
From the text: (§1) The culture medium of the invention was used in both Minimum Inhibitory Concentration (MIC) testing and Bauer-Kirby Disk Susceptibility testing for the pathogenic bacteria noted in the table below with the antimicrobial agents noted therein using the protocol and standards set forth in NCCLS Bulletin No. M2-A7 and in the Supplemental Tables appendix thereto, the disclosures of which are incorporated herein by reference.
(§2) The general procedure was as follows: pathogenic bacteria specimens were obtained from American Type Culture Collection control lots and 10 isolates were obtained from all species except Campylobacter, from which 6 isolates were obtained. Petri dishes 150 mm in diameter were autoclaved and filled with the culture medium of Example 1 and brought to room temperature. Each plate was then swab-inoculated with a suspension of one of the pathogenic bacteria equivalent to a 0.5 McFarland Standard, and then the antimicrobial-impregnated disk or antimicrobial-impregnated strip for IC measurement (Etest strip from Biodisk AB, of Solna, Sweden) were pressed into the surface of the culture medium. The plates were incubated at 35° C. for 24 hours in atmospheres containing 5-7% CO2 and the disk diffusion zones were measured, with the exception that plates inoculated with the Campylobacter species were placed into microaerophilic chambers from Mitsubishi Gas & Chemical Co. of Japan and incubated at 35° C. for 48 hours. The tests were conducted in duplicate for each pathogenic bacteria/antimicrobial agent combination on three batches of the culture medium of Example 1, for a total of six tests for each combination. Geometric mean MIC values and arithmetic mean values of zone diameters from the Disk Diffusion tests were calculated from the data, and are reported in the table below.

Haemophilus influenzae [2] = experiment: Bauer-Kirby Disk Susceptibility testing on the culture medium of Example 1; assay type: cell-based; settings: for Observed Disk Diff. Breakpoints I: I = intermediate; for Observed Disk Diff. Breakpoints R: R = resistant; for Observed Disk Diff. Breakpoints S: S = susceptible
From the text: as §1, §2

Haemophilus influenzae [3] = settings: different known culture media; cited from earlier work
Campylobacter species [4] = experiment: MIC testing (Etest strip) on the culture medium of Example 1; assay type: cell-based; settings: microaerophilic, 48 hours; for Observed MIC Breakpoints R: R = resistant; for Observed MIC Breakpoints S: S = susceptible
From the text: as §1, §2

S. pneumoniae [5] = experiment: as above; assay type: cell-based; settings: for Observed MIC Breakpoints I: I = intermediate; for Observed MIC Breakpoints R: R = resistant; for Observed MIC Breakpoints S: S = susceptible
From the text: as §1, §2

Viridans streptococci [6] = experiment: as above; assay type: cell-based; settings: for Observed MIC Breakpoints I: I = intermediate; for Observed MIC Breakpoints R: R = resistant; for Observed MIC Breakpoints S: S = susceptible
From the text: as §1, §2

β-hemolytic streptococci [7] = experiment: as above; assay type: cell-based; settings: for Observed MIC Breakpoints S: S = susceptible
From the text: as §1, §2

Campylobacter species [8] = experiment: Bauer-Kirby Disk Susceptibility testing on the culture medium of Example 1; assay type: cell-based; settings: microaerophilic, 48 hours; for Observed Disk Diff. Breakpoints R: R = resistant; for Observed Disk Diff. Breakpoints S: S = susceptible
From the text: as §1, §2

S. pneumoniae [9] = experiment: as above; assay type: cell-based; settings: for Observed Disk Diff. Breakpoints I: I = intermediate; for Observed Disk Diff. Breakpoints R: R = resistant; for Observed Disk Diff. Breakpoints S: S = susceptible
From the text: as §1, §2

Viridans streptococci [10] = experiment: as above; assay type: cell-based; settings: for Observed Disk Diff. Breakpoints I: I = intermediate; for Observed Disk Diff. Breakpoints R: R = resistant; for Observed Disk Diff. Breakpoints S: S = susceptible
From the text: as §1, §2

β-hemolytic streptococci [11] = experiment: as above; assay type: cell-based; settings: for Observed Disk Diff. Breakpoints R: R = resistant
From the text: as §1, §2

S. pneumoniae [12] = settings: different known culture media, cited from earlier work
Viridans streptococci [13] = settings: different known culture media; cited from earlier work
β-hemolytic streptococci [14] = settings: different known culture media; cited from earlier work
Neisseria gonorrhoeae [15] = experiment: MIC testing (Etest strip) on the culture medium of Example 1; assay type: cell-based; settings: for Observed MIC Breakpoints I: I = intermediate; for Observed MIC Breakpoints R: R = resistant; for Observed MIC Breakpoints S: S = susceptible
From the text: as §1, §2

Neisseria gonorrhoeae [16] = experiment: Bauer-Kirby Disk Susceptibility testing on the culture medium of Example 1; assay type: cell-based; settings: for Observed Disk Diff. Breakpoints I: I = intermediate; for Observed Disk Diff. Breakpoints R: R = resistant
From the text: as §1, §2

Neisseria gonorrhoeae [17] = settings: different known culture media; cited from earlier work
Neisseria meningitides [18] = experiment: MIC testing (Etest strip) on the culture medium of Example 1; assay type: cell-based
From the text: as §1, §2

Neisseria meningitides [19] = experiment: Bauer-Kirby Disk Susceptibility testing on the culture medium of Example 1; assay type: cell-based
From the text: as §1, §2

CC1(C)S[C@@H]2[C@H](NC(=O)[C@H](N)c3ccccc3)C(=O)N2[C@H]1C(=O)O [Ampicillin]
Observed MIC Breakpoints I (Haemophilus influenzae [1]): 8 µg/mL
Observed MIC Breakpoints R (Haemophilus influenzae [1]): ≧16 μg/mL
Observed MIC Breakpoints S (Haemophilus influenzae [1]): ≦4 μg/mL
Observed Disk Diff. Breakpoints I (Haemophilus influenzae [2]): 13-16 mm
Observed Disk Diff. Breakpoints R (Haemophilus influenzae [2]): ≦12 mm
Observed Disk Diff. Breakpoints S (Haemophilus influenzae [2]): ≧17 mm
Reported MIC Breakpoints (Haemophilus influenzae [3]): (1-4) μg/mL

CC[C@H]1OC(=O)[C@H](C)[C@@H](O[C@H]2C[C@@](C)(OC)[C@@H](O)[C@H](C)O2)[C@H](C)[C@@H](O[C@@H]2O[C@H](C)C[C@H](N(C)C)[C@H]2O)[C@](C)(O)C[C@@H](C)C(=O)[C@H](C)[C@@H](O)[C@]1(C)O [Erythromycin]
Observed MIC Breakpoints R (Campylobacter species [4]): ≧8 μg/mL
Observed MIC Breakpoints S (Campylobacter species [4]): ≦4 μg/mL
Observed MIC Breakpoints I (S. pneumoniae [5]): 1 to 32 µg/mL
Observed MIC Breakpoints R (S. pneumoniae [5]): ≧64 μg/mL
Observed MIC Breakpoints S (S. pneumoniae [5]): ≦0.5 μg/mL
Observed MIC Breakpoints I (Viridans streptococci [6]): 1 to 32 µg/mL
Observed MIC Breakpoints R (Viridans streptococci [6]): ≧64 μg/mL
Observed MIC Breakpoints S (Viridans streptococci [6]): ≦0.5 μg/mL
Observed MIC Breakpoints I (β-hemolytic streptococci [7]; I = intermediate): 1 to 32 µg/mL
Observed MIC Breakpoints R (β-hemolytic streptococci [7]; R = resistant): ≧64 μg/mL
Observed MIC Breakpoints S (β-hemolytic streptococci [7]): ≦0.5 μg/mL
Observed Disk Diff. Breakpoints R (Campylobacter species [8]): ≦20 mm
Observed Disk Diff. Breakpoints S (Campylobacter species [8]): ≧21 mm
Observed Disk Diff. Breakpoints I (S. pneumoniae [9]): 9-23 mm
Observed Disk Diff. Breakpoints R (S. pneumoniae [9]): ≦8 mm
Observed Disk Diff. Breakpoints S (S. pneumoniae [9]): ≧24 mm
Observed Disk Diff. Breakpoints I (Viridans streptococci [10]): 9-23 mm
Observed Disk Diff. Breakpoints R (Viridans streptococci [10]): ≦8 mm
Observed Disk Diff. Breakpoints S (Viridans streptococci [10]): ≧24 mm
Observed Disk Diff. Breakpoints R (β-hemolytic streptococci [11]): ≦8 mm
Observed Disk Diff. Breakpoints S (β-hemolytic streptococci [11]; S = susceptible): ≧21 mm
Reported MIC Breakpoints (S. pneumoniae [12]): (0.25-1) μg/mL
Reported MIC Breakpoints (Viridans streptococci [13]): (0.25-1) μg/mL
Reported MIC Breakpoints (β-hemolytic streptococci [14]): (0.25-1) μg/mL

O=C(O)c1cn(C2CC2)c2cc(N3CCNCC3)c(F)cc2c1=O [Ciprofloxacin]
Observed MIC Breakpoints I (Campylobacter species [4]; I = intermediate): 1 to 2 µg/mL
Observed MIC Breakpoints R (Campylobacter species [4]): ≧4 μg/mL
Observed MIC Breakpoints S (Campylobacter species [4]): ≦0.5 μg/mL
Observed MIC Breakpoints I (Neisseria gonorrhoeae [15]): 0.12 to 0.5 µg/mL
Observed MIC Breakpoints R (Neisseria gonorrhoeae [15]): ≧1 μg/mL
Observed MIC Breakpoints S (Neisseria gonorrhoeae [15]): ≦0.06 μg/mL
Observed Disk Diff. Breakpoints I (Campylobacter species [8]; I = intermediate): 19-26 mm
Observed Disk Diff. Breakpoints R (Campylobacter species [8]): ≦18 mm
Observed Disk Diff. Breakpoints S (Campylobacter species [8]): ≧27 mm
Observed Disk Diff. Breakpoints I (Neisseria gonorrhoeae [16]): 25-34 mm
Observed Disk Diff. Breakpoints R (Neisseria gonorrhoeae [16]): ≦24 mm
Observed Disk Diff. Breakpoints S (Neisseria gonorrhoeae [16]; S = susceptible): ≧35 mm
Reported MIC Breakpoints (Neisseria gonorrhoeae [17]): (0.06-1) μg/mL

O=C(N[C@H](CO)[C@H](O)c1ccc([N+](=O)[O-])cc1)C(Cl)Cl [Chloramphenicol]
Observed MIC Breakpoints I (Haemophilus influenzae [1]): 4 µg/mL
Observed MIC Breakpoints R (Haemophilus influenzae [1]): ≧8 μg/mL
Observed MIC Breakpoints S (Haemophilus influenzae [1]): ≦2 μg/mL
Observed Disk Diff. Breakpoints I (Haemophilus influenzae [2]): 20-24 mm
Observed Disk Diff. Breakpoints R (Haemophilus influenzae [2]): ≦19 mm
Observed Disk Diff. Breakpoints S (Haemophilus influenzae [2]): ≧25 mm
Reported MIC Breakpoints (Haemophilus influenzae [3]): (2-8) μg/mL

CO/N=C(\C(=O)N[C@@H]1C(=O)N2C(C(=O)O)=C(COC(C)=O)CS[C@H]12)c1csc(N)n1 [Cefotaxime]
Observed MIC Breakpoints R (S. pneumoniae [5]; Lower Respiratory Tract): ≧8 μg/mL
Observed MIC Breakpoints S (S. pneumoniae [5]; Lower Respiratory Tract): ≦4 μg/mL
Observed MIC Breakpoints I (S. pneumoniae [5]; meningitis): 1 µg/mL
Observed MIC Breakpoints R (S. pneumoniae [5]; meningitis): ≧2 μg/mL
Observed MIC Breakpoints S (S. pneumoniae [5]; meningitis): ≦0.5 μg/mL
Observed MIC Breakpoints R (Viridans streptococci [6]): ≧8 μg/mL
Observed Disk Diff. Breakpoints R (S. pneumoniae [9]; Lower Respiratory Tract): ≦23 mm
Observed Disk Diff. Breakpoints S (S. pneumoniae [9]; Lower Respiratory Tract): ≧24 mm
Observed Disk Diff. Breakpoints I (S. pneumoniae [9]; meningitis): 26-27 mm
Observed Disk Diff. Breakpoints R (S. pneumoniae [9]; meningitis): ≦25 mm
Observed Disk Diff. Breakpoints S (S. pneumoniae [9]; meningitis): ≧28 mm
Observed Disk Diff. Breakpoints R (Viridans streptococci [10]): ≦23 mm
Observed Disk Diff. Breakpoints S (Viridans streptococci [10]): ≧24 mm
Reported MIC Breakpoints (S. pneumoniae [12]; meningitis): (0.5-2) μg/mL
Reported MIC Breakpoints (Viridans streptococci [13]): (0.5-2) μg/mL

Penicillin
Observed MIC Breakpoints I (Neisseria gonorrhoeae [15]): 0.12 to 1 µg/mL
Observed MIC Breakpoints R (Neisseria gonorrhoeae [15]): ≧2 μg/mL
Observed MIC Breakpoints S (Neisseria gonorrhoeae [15]): ≦0.06 μg/mL
Observed MIC Breakpoints I (Neisseria meningitides [18]; I = intermediate): 0.25 µg/mL
Observed MIC Breakpoints R (Neisseria meningitides [18]; R = resistant): ≧0.5 μg/mL
Observed MIC Breakpoints S (Neisseria meningitides [18]; S = susceptible): ≦0.12 μg/mL
Observed MIC Breakpoints I (S. pneumoniae [5]; Lower Respiratory Tract): 2 µg/mL
Observed MIC Breakpoints R (S. pneumoniae [5]; Lower Respiratory Tract): ≧4 μg/mL
Observed MIC Breakpoints S (S. pneumoniae [5]; Lower Respiratory Tract): ≦1 μg/mL
Observed MIC Breakpoints I (S. pneumoniae [5]; meningitis): 0.25 to 1 µg/mL
Observed MIC Breakpoints R (S. pneumoniae [5]; meningitis): ≧2 μg/mL
Observed MIC Breakpoints S (S. pneumoniae [5]; meningitis): ≦0.12 μg/mL
Observed MIC Breakpoints I (Viridans streptococci [6]): 2 µg/mL
Observed MIC Breakpoints R (Viridans streptococci [6]): ≧4 μg/mL
Observed MIC Breakpoints S (Viridans streptococci [6]): ≦1 μg/mL
Observed MIC Breakpoints S (β-hemolytic streptococci [7]): 0.12 µg/mL
Observed Disk Diff. Breakpoints I (Neisseria gonorrhoeae [16]): 24-38 mm
Observed Disk Diff. Breakpoints R (Neisseria gonorrhoeae [16]): ≦23 mm
Observed Disk Diff. Breakpoints I (Neisseria meningitides [19]; I = intermediate): 24-25 mm
Observed Disk Diff. Breakpoints R (Neisseria meningitides [19]; R = resistant): ≦23 mm
Observed Disk Diff. Breakpoints S (Neisseria meningitides [19]; S = susceptible): ≧26 mm
Observed Disk Diff. Breakpoints I (Viridans streptococci [10]): 20-23 mm
Observed Disk Diff. Breakpoints R (Viridans streptococci [10]): ≦19 mm
Observed Disk Diff. Breakpoints S (Viridans streptococci [10]): ≧24 mm
Observed Disk Diff. Breakpoints R (β-hemolytic streptococci [11]): ≦26 mm
Reported MIC Breakpoints (S. pneumoniae [12]; meningitis): (0.06-2) μg/mL
Reported MIC Breakpoints (Viridans streptococci [13]): (0.12-4) μg/mL
Reported MIC Breakpoints (Neisseria gonorrhoeae [17]): (0.06-2) μg/mL

CN(C)[C@@H]1C(O)=C(C(N)=O)C(=O)[C@@]2(O)C(O)=C3C(=O)c4c(O)cccc4[C@@](C)(O)[C@H]3C[C@@H]12 [Tetracycline]
Observed MIC Breakpoints I (Haemophilus influenzae [1]): 4 µg/mL
Observed MIC Breakpoints R (Haemophilus influenzae [1]): ≧8 μg/mL
Observed MIC Breakpoints S (Haemophilus influenzae [1]): ≦2 μg/mL
Observed MIC Breakpoints I (S. pneumoniae [5]): 2 to 4 µg/mL
Observed MIC Breakpoints R (S. pneumoniae [5]): ≧8 μg/mL
Observed MIC Breakpoints S (S. pneumoniae [5]): ≦1 μg/mL
Observed MIC Breakpoints I (Viridans streptococci [6]): 2 to 4 µg/mL
Observed MIC Breakpoints R (Viridans streptococci [6]): ≧8 μg/mL
Observed MIC Breakpoints S (Viridans streptococci [6]): ≦1 μg/mL
Observed Disk Diff. Breakpoints I (Haemophilus influenzae [2]): 19-24 mm
Observed Disk Diff. Breakpoints R (Haemophilus influenzae [2]): ≦20 mm
Observed Disk Diff. Breakpoints S (Haemophilus influenzae [2]): ≧25 mm
Observed Disk Diff. Breakpoints I (S. pneumoniae [9]): 14-22 mm
Observed Disk Diff. Breakpoints R (S. pneumoniae [9]): ≦13 mm
Observed Disk Diff. Breakpoints S (S. pneumoniae [9]): ≧23 mm
Observed Disk Diff. Breakpoints I (Viridans streptococci [10]): 18-22 mm
Observed Disk Diff. Breakpoints R (Viridans streptococci [10]): ≦17 mm
Observed Disk Diff. Breakpoints S (Viridans streptococci [10]): ≧23 mm
